Where two headings read alike, the source gives them in different places.
What was measured:
mTOR = molecular target: T1, mTOR (Homo sapiens, UniProt P42345); assay: mTOR kinase assay (DELFIA, purified enzyme); assay type: biochemical; conditions: purified FLAG-TOR, 100 μM ATP, His6-S6K substrate; * = compounds 4 and 5 screened as a mixture
T1 construct: FLAG
Procedure: The routine human TOR assays with purified enzyme were performed in 96-well plates by DELFIA format as follows. Enzymes were first diluted in kinase assay buffer (10 mM Hepes (pH 7.4), 50 mM NaCl, 50 mM β-glycerophosphate, 10 mM MnCl2, 0.5 mM DTT, 0.25 μM microcystin LR, and 100 μg/mL BSA). To each well, 12 μL of the diluted enzyme were mixed briefly with 0.5 μL test inhibitor or control vehicle dimethylsulfoxide (DMSO). The kinase reaction was initiated by adding 12.5 μL kinase assay buffer containing ATP and His6-S6K to give a final reaction volume of 25 μL containing 800 ng/mL FLAG-TOR, 100 μM ATP and 1.25 μM His6-S6K. The reaction plate was incubated for 2 hours (linear at 1-6 hours) at room temperature with gentle shaking and then terminated by adding 25 μL Stop buffer (20 mM Hepes (pH 7.4), 20 mM EDTA, 20 mM EGTA). The DELFIA detection of the phosphorylated (Thr-389) His6-S6K was performed at room temperature using a monoclonal anti-P(T389)-p70S6K antibody (1A5, Cell Signaling) labeled with Europium-N1-ITC (Eu) (10.4 Eu per antibody, PerkinElmer). The DELFIA Assay buffer and Enhancement solution were purchased from PerkinElmer. 45 μL of the terminated kinase reaction mixture was transferred to a MaxiSorp plate (Nunc) containing 55 μL PBS. The His6-S6K was allowed to attach for 2 hours after which the wells were aspirated and washed once with PBS. 100 μL of DELFIA Assay buffer with 40 ng/mL Eu-P(T389)—S6K antibody was added. The antibody binding was continued for 1 hour with gentle agitation. The wells were then aspirated and washed 4 times with PBS containing 0.05% Tween-20 (PBST). 100 μL of DELFIA Enhancement solution was added to each well and the plates were read in a PerkinElmer Victor model plate reader. Data obtained were used to calculate enzymatic activity and enzyme inhibition by potential inhibitors. mTOR IC50 data (reported in μM) is provided in Table 1.

LNCap cells = assay: In vitro cell growth assay (MTS), LNCap; assay type: cell-based, human
Procedure: (§1) Cells of human tumor lines LNCap and MDA468 were plated in 96-well culture plates at approximately 3000 cells per well. One day following plating, various doses of mTOR inhibitors were added to cells. Three days after drug treatment, viable cell densities were determined by metabolic conversion (by viable cells) of the dye MTS, a well-established cell proliferation assay. The assays were performed using an assay kit purchased from Promega Corp. (Madison, Wis.) following the protocol supplied with the kit. The MTS assay results were read in a 96-well plate reader by measuring absorbance at 490 nm. The effect of each treatment was calculated as percent of control growth relative to the vehicle-treated cells grown in the same culture plate. The drug concentration that conferred 50% inhibition of growth was determined as IC50 (μM).

MDA468 cells = assay: In vitro cell growth assay (MTS), MDA468; assay type: cell-based, human
Procedure: as §1

[1] = 72 h, LNCap human tumor line, 3 days treatment, MTS, * = compounds 4 and 5 screened as a mixture
[2] = Homo sapiens, LNCap cell growth
[3] = 72 h, MDA468 human tumor line, 3 days treatment, MTS, * = compounds 4 and 5 screened as a mixture, read-out: MDA 468 IC50

| Compound | IC50 (mTOR) | IC50 (LNCap cells; [1]) | IC50 (LNCap cells; [2]) | IC50 (MDA468 cells; [3]) | IC50 (MDA468 cells; Homo sapiens, Example 8) |
| --- | --- | --- | --- | --- | --- |
| CCC(=O)Nc1cc(N)c2c3c(cc(C(=O)/C=C/OC)nc13)C=N2 [Compound 1, (E)-N-(8-amino-4-(3-methoxyacryloyl)pyrrolo[4,3,2-de]quinolin-6-yl)-propionamide] | 1.5 nM | 48 nM | 20 to 300 nM | 85 nM | 50 to 800 nM |
| CO/C=C/C(=O)c1cc2c3c(c(N)cc(NC(=O)C(C)C)c3n1)N=C2 [Compound 2, (E)-N-(8-amino-4-(3-methoxyacryloyl)pyrrolo[4,3,2-de]quinolin-6-yl)isobutyramide] | 0.8 nM | 22 nM | 20 to 300 nM | 58 nM | 50 to 800 nM |
| CCCC(=O)Nc1cc(N)c2c3c(cc(C(=O)CCO)nc13)C=N2 [Compound 3, N-(8-amino-4-(3-hydroxypropanoyl)pyrrolo[4,3,2-de]quinolin-6-yl)butyramide] | > 4000 nM | > 12000 nM | – | > 12000 nM | – |
| CO/C=C/C(=O)c1cc2c3c(c(N)cc(NC(=O)CC(C)C)c3n1)N=C2 [Compound 4, (E)-N-(8-amino-4-(3-methoxyacryloyl)pyrrolo[4,3,2-de]quinolin-6-yl)-3-methylbutanamide] | 1.8 nM | 230 nM | 20 to 300 nM | 700 nM | 50 to 800 nM |

More lines, main results first:

| IC50 (mTOR) | IC50 (LNCap cells; [1]) | IC50 (LNCap cells; [2]) | Compound | IC50 (MDA468 cells; [3]) | IC50 (MDA468 cells; Homo sapiens, Example 8) |
| --- | --- | --- | --- | --- | --- |
| 1.8 nM | 230 nM | – | CCC(C)C(=O)Nc1cc(N)c2c3c(cc(C(=O)/C=C/OC)nc13)C=N2 (stereo not drawn) [Compound 5, (E)-N-(8-amino-4-(3-methoxyacryloyl)pyrrolo[4,3,2-de]quinolin-6-yl)-2-methylbutanamide] | 700 nM | – |
| > 4000 nM | 6500 nM | – | CC(C)C(=O)Nc1cc(N)c2c3c(cc(C(=O)CCO)nc13)C=N2 [Compound 6, N-(8-amino-4-(3-hydroxypropanoyl)pyrrolo[4,3,2-de]quinolin-6-yl)isobutyramide] | 1200 nM | – |
| > 4000 nM | 5000 nM | – | CCC(=O)Nc1cc(N)c2c3c(cc(C(=O)CCO)nc13)C=N2 [Compound 7, N-(8-amino-4-(3-hydroxypropanoyl)pyrrolo[4,3,2-de]quinolin-6-yl)propionamide] | 400 nM | – |
| 1500 nM | 2900 nM | – | CC(C)CC(=O)Nc1cc(N)c2c3c(cc(C(=O)CCO)nc13)C=N2 [Compound 8, N-(8-amino-4-(3-hydroxypropanoyl)pyrrolo[4,3,2-de]quinolin-6-yl)-3-methylbutanamide] | 3500 nM | – |
| 3200 nM | 10000 nM | – | CCC(C)C(=O)Nc1cc(N)c2c3c(cc(C(=O)CCO)nc13)C=N2 (stereo not drawn) [Compound 9, N-(8-amino-4-(3-hydroxypropanoyl)pyrrolo[4,3,2-de]quinolin-6-yl)-2-methylbutanamide] | 7600 nM | – |
